From ChEMBL document CHEMBL2029208 (Bioorg Med Chem, 2012)
Values after ≈ are worked out from the molar mass of the structure shown.

Key:
[1] = tested on: Mycobacterium tuberculosis; assay: microbe, parasite or virus in culture; format: functional; conditions: H37Ra
[2] = target: T1, Bifunctional epoxide hydrolase 2 (Homo sapiens, UniProt P34913);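 note: recombinant enzyme with CMNPC substrate, fluorescence readout of 6-methoxy-2-naphthaldehyde formed over a 10 min reaction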
T1 sequence (P34913 whole entry): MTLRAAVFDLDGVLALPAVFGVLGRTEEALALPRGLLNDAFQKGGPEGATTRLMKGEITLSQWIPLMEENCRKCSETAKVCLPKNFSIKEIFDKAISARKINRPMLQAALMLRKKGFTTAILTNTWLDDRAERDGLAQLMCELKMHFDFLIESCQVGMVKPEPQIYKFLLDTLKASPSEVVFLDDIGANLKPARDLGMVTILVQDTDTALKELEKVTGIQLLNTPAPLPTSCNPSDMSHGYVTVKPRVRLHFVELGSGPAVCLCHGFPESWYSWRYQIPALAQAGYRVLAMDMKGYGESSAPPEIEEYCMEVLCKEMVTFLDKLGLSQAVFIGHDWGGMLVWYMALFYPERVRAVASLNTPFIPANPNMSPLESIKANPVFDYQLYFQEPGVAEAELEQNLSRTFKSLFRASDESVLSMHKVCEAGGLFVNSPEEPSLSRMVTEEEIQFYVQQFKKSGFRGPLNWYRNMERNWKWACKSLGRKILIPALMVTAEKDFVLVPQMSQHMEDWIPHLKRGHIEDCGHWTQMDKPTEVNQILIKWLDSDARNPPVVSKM

| SMILES | MIC [1] [µg/mL] | IC50 [2] [nM] |
| --- | --- | --- |
| CCOCCOCC(OC(=O)CCCNC(=O)NC12CC3CC(CC(C3)C1)C2)c1ccccc1 (configuration not stated) | 95 (≈ 201 µM) | 4.2 |
| CCCCCCCOCCNC(=O)NC12CC3CC(CC(C3)C1)C2 | 2.1 (≈ 6.24 µM) |  |
| COc1ccc(O[C@H]2CC[C@@H](NC(=O)NC34CC5CC(CC(C5)C3)C4)CC2)cc1 | > 80 |  |
| O=C(Nc1cccc(C(=O)N2CCC(N3CCOCC3)CC2)c1)NC12CC3CC(CC(C3)C1)C2 | > 93 |  |
| O=C(Nc1ccc(-n2ccnc2)cc1)NC12CC3CC(CC(C3)C1)C2 | > 44 |  |
| O=C(Nc1cccc(C(=O)N2CCOCC2)c1)NC12CC3CC(CC(C3)C1)C2 | > 77 |  |
| O=C(NC1CCCC(C(=O)NN2CCOCC2)C1)NC12CC3CC(CC(C3)C1)C2 (configuration not stated) | > 84 | 25.8 |
| COc1ccc(NC(=O)NC23CC4CC(CC(C4)C2)C3)cc1 | 1.88 (≈ 6.26 µM) |  |
| COc1ccc(O[C@H]2CC[C@H](NC(=O)NC34CC5CC(CC(C5)C3)C4)CC2)cc1 | > 80 |  |
| O=C(NC12CC3CC(CC(C3)C1)C2)N[C@H]1CC[C@H](OCCCN2CCOCC2)CC1 | > 42 |  |
| O=C(Nc1ccc(O)cc1)NC12CC3CC(CC(C3)C1)C2 | 57 (≈ 199 µM) |  |
| O=C(Nc1ccccc1OCCCN1CCOCC1)NC12CC3CC(CC(C3)C1)C2 | 21 (≈ 50.8 µM) |  |
| CCCCOCCCCCNC(=O)NC12CC3CC(CC(C3)C1)C2 | 2.1 (≈ 6.24 µM) |  |
| CCOCCOCCOCCCCCNC(=O)NC12CC3CC(CC(C3)C1)C2 | > 79 |  |
| O=C(NC12CC3CC(CC(C3)C1)C2)N[C@H]1CC[C@@H](Oc2ccc(F)cc2)CC1 | > 20 |  |
| O=C(NC12CC3CC(CC(C3)C1)C2)N[C@H]1CC[C@@H](Oc2cc(F)cc(F)c2)CC1 | 10 (≈ 24.7 µM) |  |
| CC(=O)Oc1ccc(NC(=O)NC23CC4CC(CC(C4)C2)C3)cc1 | 66 (≈ 201 µM) |  |
| CC(C)Oc1cc(F)c(CO[C@H]2CC[C@H](NC(=O)NC34CC5CC(CC(C5)C3)C4)CC2)c(F)c1 | 11.9 (≈ 25 µM) |  |
| O=C(NC12CC3CC(CC(C3)C1)C2)N[C@H]1CC[C@H](OCC2CCCCC2)CC1 | > 78 |  |
| CC(=O)Nc1ccc(NC(=O)NC23CC4CC(CC(C4)C2)C3)cc1 | 65 (≈ 199 µM) |  |
| O=C(Nc1cccc(Oc2ccc(F)cc2)c1)NC12CC3CC(CC(C3)C1)C2 | 2.5 (≈ 6.57 µM) |  |
| O=C(NC12CC3CC(CC(C3)C1)C2)N[C@H]1CC[C@H](Oc2ccc(Br)cc2)CC1 | > 89 |  |
| O=C(O)CCCc1ccc(NC(=O)NC23CC4CC(CC(C4)C2)C3)cc1 | 36 (≈ 101 µM) |  |

| SMILES | MIC [1] [µg/mL] | IC50 [2] [nM] |
| --- | --- | --- |
| COC(=O)c1ccc(NC(=O)NC23CC4CC(CC(C4)C2)C3)cc1 | 2 (≈ 6.09 µM) |  |
| O=C(Nc1ccc(OCCN2CCOCC2)cc1)NC12CC3CC(CC(C3)C1)C2 | > 30 |  |
| O=C(Nc1ccc(C(=O)O)cc1)N[C@H]1CC[C@@H](Oc2ccc(F)cc2)CC1 | 4.65 (≈ 12.5 µM) |  |
| CCC(=O)Oc1ccc(NC(=O)NC23CC4CC(CC(C4)C2)C3)cc1 | > 68 |  |
| CO[C@H]1CC[C@H](NC(=O)NC23CC4CC(CC(C4)C2)C3)CC1 | > 61 |  |
| O=C(Nc1ccc(OC(=O)c2ccccc2)cc1)NC12CC3CC(CC(C3)C1)C2 | 39 (≈ 99.9 µM) |  |
| CCC(=O)Oc1cccc(NC(=O)NC23CC4CC(CC(C4)C2)C3)c1 | 17 (≈ 49.6 µM) |  |
| O=C(Nc1cccc(OC(=O)c2ccccc2)c1)NC12CC3CC(CC(C3)C1)C2 | 2.4 (≈ 6.15 µM) |  |
| O=C(NC12CC3CC(CC(C3)C1)C2)N[C@H]1CC[C@@H](OCc2c(F)cccc2F)CC1 | 42 (≈ 100 µM) |  |
| O=C(NC12CC3CC(CC(C3)C1)C2)N[C@H]1CC[C@H](OCc2ccccc2)CC1 | > 77 |  |
| O=C(NCCCCOc1ccc(F)cc1)NC12CC3CC(CC(C3)C1)C2 | 2.25 (≈ 6.24 µM) |  |
| CCc1ccc(OCCOCCOCCCCCNC(=O)NC23CC4CC(CC(C4)C2)C3)cc1 | 24 (≈ 50.8 µM) |  |
| CO[C@H]1CC[C@@H](NC(=O)NC23CC4CC(CC(C4)C2)C3)CC1 | > 61 |  |
| O=C(NC12CC3CC(CC(C3)C1)C2)N[C@H]1CC[C@H](Oc2cc(F)cc(F)c2)CC1 | > 41 |  |
| O=C(NC12CC3CC(CC(C3)C1)C2)N[C@H]1CC[C@H](Oc2ccc(F)cc2)CC1 | > 39 |  |
| O=C(Nc1ccc(OCCCCN2CCOCC2)cc1)NC12CC3CC(CC(C3)C1)C2 | 21 (≈ 49.1 µM) |  |
| O=C(Nc1ccc(OC2CCOC2=O)cc1)NC12CC3CC(CC(C3)C1)C2 (configuration not stated) | > 37 |  |
| O=C(Nc1cccc(C(=O)NCCN2CCOCC2)c1)NC12CC3CC(CC(C3)C1)C2 | > 30 |  |
| COc1ccccc1NC(=O)NC12CC3CC(CC(C3)C1)C2 | 30 (≈ 99.9 µM) |  |
| C[C@H](NC(=O)Cc1ccc(NC(=O)NC23CC4CC(CC(C4)C2)C3)cc1)C(=O)N[C@@H](Cc1c[nH]c2ccccc12)C(=O)O | 66 (≈ 113 µM) |  |
| O=C(NC12CC3CC(CC(C3)C1)C2)N[C@H]1CC[C@H](O)CC1 | > 58 |  |
| CCCCOC(=O)CCCCCCCCCCCNC(=O)NC12CC3CC(CC(C3)C1)C2 | 5.61 (≈ 12.5 µM) |  |
